Test results as given in patent US9089548B2, “Composition for protection against cell-damaging effects” (TIMA FOUNDATION, priority 2011, dated 2015).

How the values were obtained:
hen's egg white lysozyme = experiment: Activity test of lysozyme X-irradiated in the presence of additives added before irradiation (a.r.); format: biochemical; settings: X (1000 Gy); a.r. additive 10 mM; lysozyme 0.1 mg/ml; unirradiated lysozyme = 100%
Protocol: The hen's egg white lysozyme was purchased from Serva (Heidelberg, Germany), additives and all other substances were of the highest available grade. Lysozyme (0.1 mg/ml) and the additives (10 mM, except otherwise stated) were dissolved in dilute, air-saturated 1 mM sodium phosphate buffer pH 6.5 and were irradiated at 25° C. with X-rays (0-1 kGy) in the absence or presence of the additives. Activity tests of the lysozyme were performed as described in Shugar, 1952. The measurement of lysozyme activity and the ultra-violet inactivation of lysozyme. Biochim. Biophys. Acta 8, 302-309. were recorded in a Jasco UV/VIS spectrophotometer V-530. The activity test of lysozyme is simple and straightforward. The method described by Shugar uses the diluted unirradiated or irradiated enzyme and a cell suspension of Micrococcus lysodeikticus in a special activity buffer (66 mM sodium phosphate buffer with 17 mM NaCl, pH 7.0). The bacterium is suspended in an Erlenmeyer flask in the activity buffer at a concentration of 0.2 mg/ml. Before using the bacterial suspension in the test, the flask has to be swivelled to ensure homogeneous pipetting into the cuvette. Working briskly, the enzyme sample was pipetted to the bacterial solution, and using parafilm to tightly seal the cuvette, was homogeneously hand-mixed. Typical test mixtures (total of 3 ml) consisted of 2.98 ml bacterial solution plus 0.02 ml unirradiated enzyme sample in the absence or presence of additives, and 2.95 ml bacterial solution plus 0.05 ml irradiated enzyme (250 Gy) in the absence of additives, and 2.6 ml bacterial solution plus 0.4 ml irradiated enzyme (1000 Gy) in the absence of additives, to allow reasonable handling of the samples. The decrease in absorbance resulting from a breakdown of the bacteria by the enzyme is measured in a 3-ml cuvette in a spectrophotometer at a wavelength of 450 nm for a continuous time period of 3 min at 25° C. Different decreases in absorbance reflect different activities. The test may also be applied for lysozyme in the presence of antioxidants, since, owing to the high dilution of the samples (lysozyme+antioxidants) in the test and the wavelength used, the antioxidants will not disturb the results of the activity measurement. No further separation techniques are needed. Irradiations were performed in small 2-ml plastic cups at 25° C. The dosage measurement of X-rays was obtained by Fricke dosimetry (ferrous sulfate dosimetry). […] Afterwards the irradiated lysozyme was used in the activity assay as described in example 2 to determine the activity of the lysozyme. For comparison, activities are given in percent. The native, unirradiated lysozyme is used as reference and is considered to have 100% activity. […]

[1] = system: hydrogen peroxide in the blood of mice; experiment: Hydrogen peroxide concentration in blood of 6 Gy irradiated mice (d-ROMs test); format: in vivo, C57BL/6 mice; settings: Example 7; for Hydrogen peroxide concentration: three times in 24 h interval before 6 Gy, blood 72 h after irradiation
Protocol: For the following experiments C57BL/6 mice (21 gram body weight) were purchased from Japan SLC (Shizuoka, Japan). The mice were used for the experiments with an age of 8 weeks.
In this Experiment Six Groups were Built, Wherein Each Group Comprises 6 Mice: • a) the first group of mice were not treated and built the negative control, • b) the second group of mice built the positive control, thus the mice were treated with 6 Gy radiation and 72 hours after irradiation blood sampling was performed, • c) the third group of mice was treated with 150 mg Vitamin C per kg body weight, • d) the forth group of mice was treated with 15 mg Vitamin C per kg body weight, and • e) the fifth group of mice was treated with 15 mg of the composition in Example 6 per kg body weight.
The following experiment was performed for the first, second and fifth group in three independent experiments, for the third group in two independent experiments and for the forth group in one experiment.
Each mouse was placed in a well-ventilated acrylic container. The composition in Example 6 and Vitamin C, respectively suspended in 0.5 ml water was orally administered three times in a 24 hours interval to the mice of the third to fifth group. 24 hours after the third administration mice were exposed to 6 Gy whole body irradiation (WBI), given at a dose rate of 0.45 Gy/min at 150 kV and 5 mA (HITACHI MBR-1505R2, Tokyo, Japan). The beam was filtered through a 2 mm aluminum board. 72 hours after irradiation blood sampling was performed.
The d-ROMs (Reactive Oxygen Metabolites) test by using Free Carpe Diem photometric analytical system (Diacron, Grosseto, Italy) was used for the measurement of free radical metabolites in the blood samples of the mice. It is a spectrophotometric method that assesses overall oxidative stress by measuring total hydroperoxide levels, given that hydroperoxides are intermediate oxidative products of lipids, peptides, and amino acids. Briefly, 0.02 ml plasma was diluted in 1 ml acetate-buffered solution. Hydroperoxide groups react with the transition metal ions liberated from the proteins in the acidic medium, and are converted to alkoxyl and peroxyl radicals according to the Fenton reaction. These newly formed radicals, the quantities of which are directly proportional to those of the peroxides, were trapped chemically with 0.02 ml chromogen (N, N-diethyl-para-phenylendiamine), leading to the formation of the radical cation of this chromogen. The purple color resulting from this reaction over time was monitored in a spectrophotometer (Wismarll FRAS4, Tokyo, Japan) at 505 nm. The results of this method were expressed in μmol per liter. […]
c) the fifth group of mice, comprising 12 mice, was treated with 15 mg of a composition similar to that of Example 8 containing cysteine instead of cystine per kg body weight by oral administration, and
d) the sixth group of mice, comprising 12 mice, was treated with 15 mg of the composition according to Example 8 per kg body weight by intra-peritoneal administration.
Each mouse was placed in a well-ventilated acrylic container. The mice representing the positive control were exposed to 6 Gy whole body irradiation (WBI), given at a dose rate of 0.45 Gy/min at 150 kV and 5 mA (HITACHI MBR-1505R2, Tokyo, Japan). The beam was filtered through a 2 mm aluminum board. 72 hours after irradiation blood sampling was performed.
The composition in Example 8 was orally administered three times in a 24 hours interval to the mice of the second group in the concentration of 15 mg composition per kg body weight, i.e. the mice were pre-treated 3 days with the composition of Example 8 before irradiation. 24 hours after the third administration mice were irradiated using conditions as for positive control. 72 hours after irradiation blood sampling was performed. […]

OC[C@@H](O)[C@@H](O)[C@H](O)[C@H](O)CO [Mannitol, mannitol]
% Activity (hen's egg white lysozyme): 51%

N[C@@H](CCC(=O)N[C@@H](CS)C(=O)NCC(=O)O)C(=O)O [Glutathione, glutathione]
% Activity (hen's egg white lysozyme): 58%

O=C[O-].[Na+] [Sodium-Formate, sodium-formate]
% Activity (hen's egg white lysozyme): 75%

O=C1O[C@H]([C@@H](O)CO)C(O)=C1O [Ascorbic acid]
Difference (increase vs positive control) ([1]; 15 mg/kg oral, three times before 6 Gy, positive control 144.7): 5.1 µmol/L | Increase rate ([1]; 15 mg/kg oral, three times before 6 Gy, relative to radiation-induced increase 19.7 μmol/l, listed as Vitamin C, 15 mg/kg): 25.89% | Hydrogen peroxide concentration ([1]; 15 mg/kg oral): 149.6 µmol/L | Difference (decrease vs positive control) ([1]; 150 mg/kg oral, three times before 6 Gy, positive control 144.7): 3.8 µmol/L | Reduction rate ([1]; 150 mg/kg oral, three times before 6 Gy, relative to radiation-induced increase 19.7 μmol/l, listed as Vitamin C, 150 mg/kg): 19.29% | Hydrogen peroxide concentration ([1]; 150 mg/kg oral): 140.5 µmol/L | % Activity (hen's egg white lysozyme): 90%
